Legend:
Cortex [1] = test: Biodistribution in Wistar rat cortex at 300 uCi, iv after 240 mins; type: ADME, organism-based; conditions: in vivo, 4 h
Striatum [2] = test: Biodistribution in Wistar rat striatum at 300 uCi, iv after 5 mins; type: ADME, organism-based; conditions: in vivo
Blood [3] = test: Biodistribution in Wistar rat blood at 300 uCi, iv after 5 mins; type: ADME, organism-based; conditions: in vivo
Cerebellum [4] = test: Biodistribution in Wistar rat cerebellum at 300 uCi, iv after 60 mins in presence of GBR-12909; type: ADME, organism-based; conditions: in vivo, 1 h
Harderian gland [5] = test: Biodistribution in Wistar rat harderian glands at 300 uCi, iv after 240 mins; type: ADME, organism-based; conditions: in vivo, 4 h
Brain [6] = test: Biodistribution in Wistar rat rest of brain at 300 uCi, iv after 60 mins in presence of GBR-12909; type: ADME, organism-based; conditions: in vivo, 1 h
Muscle tissue [7] = test: Biodistribution in Wistar rat muscle at 300 uCi, iv after 120 mins; type: ADME, organism-based; conditions: in vivo, 2 h
Hippocampus [8] = test: Biodistribution in Wistar rat hippocampus at 300 uCi, iv after 60 mins in presence of GBR-12909; type: ADME, organism-based; conditions: in vivo, 1 h
Blood [9] = test: Biodistribution in Wistar rat blood at 300 uCi, iv after 120 mins; type: ADME, organism-based; conditions: in vivo, 2 h
Spleen = test: Biodistribution in Wistar rat spleen at 300 uCi, iv after 60 mins; type: ADME, organism-based; conditions: in vivo, 1 h
[10] = Biodistribution in Wistar rat rest of brain at 300 uCi, iv after 240 mins; type: ADME, organism-based; conditions: in vivo, 4 h
Harderian gland [11] = test: Biodistribution in Wistar rat harderian glands at 300 uCi, iv after 5 mins; type: ADME, organism-based; conditions: in vivo
Blood [12] = test: Biodistribution in Wistar rat blood at 300 uCi, iv after 60 mins; type: ADME, organism-based; conditions: in vivo, 1 h
Brain [13] = test: Biodistribution in Wistar rat rest of brain at 300 uCi, iv after 60 mins in presence of nisoxetine; type: ADME, organism-based; conditions: in vivo, 1 h
Heart [14] = test: Biodistribution in Wistar rat heart at 300 uCi, iv after 20 mins; type: ADME, organism-based; conditions: in vivo
[15] = Biodistribution in Wistar rat rest of brain at 300 uCi, iv after 120 mins; type: ADME, organism-based; conditions: in vivo, 2 h
Cortex [16] = test: Biodistribution in Wistar rat cortex at 300 uCi, iv after 5 mins; type: ADME, organism-based; conditions: in vivo
Harderian gland [17] = test: Biodistribution in Wistar rat harderian glands at 300 uCi, iv after 60 mins; type: ADME, organism-based; conditions: in vivo, 1 h
Hippocampus [18] = test: Biodistribution in Wistar rat hippocampus at 300 uCi, iv after 5 mins; type: ADME, organism-based; conditions: in vivo
Cortex [19] = test: Biodistribution in Wistar rat cortex at 300 uCi, iv after 60 mins in presence of citalopram; type: ADME, organism-based; conditions: in vivo, 1 h
Striatum [20] = test: Biodistribution in Wistar rat striatum at 300 uCi, iv after 60 mins in presence of GBR-12909; type: ADME, organism-based; conditions: in vivo, 1 h
Plasma [21] = test: Metabolic stability in Wistar rat plasma assessed as polar metabolite level at 1 mCi, iv after 240 mins; type: ADME, organism-based; conditions: in vivo, 4 h
Plasma [22] = test: Metabolic stability in Wistar rat plasma assessed as polar metabolite level at 1 mCi, iv after 5 mins; type: ADME, organism-based; conditions: in vivo
Heart [23] = test: Biodistribution in Wistar rat heart at 300 uCi, iv after 5 mins; type: ADME, organism-based; conditions: in vivo
Muscle tissue [24] = test: Biodistribution in Wistar rat muscle at 300 uCi, iv after 20 mins; type: ADME, organism-based; conditions: in vivo
Plasma [25] = test: Metabolic stability in Wistar rat plasma assessed as polar metabolite level at 1 mCi, iv after 10 mins; type: ADME, organism-based; conditions: in vivo
Pancreas [26] = test: Biodistribution in Wistar rat pancreas at 300 uCi, iv after 5 mins; type: ADME, organism-based; conditions: in vivo
Lung [27] = test: Biodistribution in Wistar rat lung at 300 uCi, iv after 120 mins; type: ADME, organism-based; conditions: in vivo, 2 h
Testes [28] = test: Biodistribution in Wistar rat testes at 300 uCi, iv after 120 mins; type: ADME, organism-based, Testis; conditions: in vivo, 2 h
[29] = Biodistribution in Wistar rat brown fat at 300 uCi, iv after 120 mins; type: ADME, organism-based, Brown adipose tissue; conditions: in vivo, 2 h
Femur [30] = test: Biodistribution in Wistar rat femur at 300 uCi, iv after 120 mins; type: ADME, organism-based; conditions: in vivo, 2 h
Femur [31] = test: Biodistribution in Wistar rat femur at 300 uCi, iv after 60 mins; type: ADME, organism-based; conditions: in vivo, 1 h
[32] = Biodistribution in Wistar rat hair and skin at 300 uCi, iv after 60 mins; type: ADME, organism-based; conditions: in vivo, 1 h
Pancreas [33] = test: Biodistribution in Wistar rat pancreas at 300 uCi, iv after 20 mins; type: ADME, organism-based; conditions: in vivo
Pancreas [34] = test: Biodistribution in Wistar rat pancreas at 300 uCi, iv after 120 mins; type: ADME, organism-based; conditions: in vivo, 2 h
Thymus = test: Biodistribution in Wistar rat thymus at 300 uCi, iv after 240 mins; type: ADME, organism-based; conditions: in vivo, 4 h
Cerebellum [35] = test: Biodistribution in Wistar rat cerebellum at 300 uCi, iv after 60 mins in presence of citalopram; type: ADME, organism-based; conditions: in vivo, 1 h
Cortex [36] = test: Biodistribution in Wistar rat cortex at 300 uCi, iv after 120 mins; type: ADME, organism-based; conditions: in vivo, 2 h
Plasma [37] = test: Metabolic stability in Wistar rat plasma assessed as polar metabolite level at 1 mCi, iv after 1.5 mins; type: ADME, organism-based; conditions: in vivo, 0.025 h
Testes [38] = test: Biodistribution in Wistar rat testes at 300 uCi, iv after 5 mins; type: ADME, organism-based, Testis; conditions: in vivo
Striatum [39] = test: Biodistribution in Wistar rat striatum at 300 uCi, iv after 20 mins; type: ADME, organism-based; conditions: in vivo
Cerebellum [40] = test: Biodistribution in Wistar rat cerebellum at 300 uCi, iv after 5 mins; type: ADME, organism-based; conditions: in vivo
[41] = Biodistribution in Wistar rat brown fat at 300 uCi, iv after 60 mins; type: ADME, organism-based, Brown adipose tissue; conditions: in vivo, 1 h
Adrenal = test: Biodistribution in Wistar rat adrenal gland at 300 uCi, iv after 60 mins; type: ADME, organism-based, Adrenal tissue; conditions: in vivo, 1 h
Liver [42] = test: Biodistribution in Wistar rat liver at 300 uCi, iv after 5 mins; type: ADME, organism-based; conditions: in vivo
Liver [43] = test: Biodistribution in Wistar rat liver at 300 uCi, iv after 120 mins; type: ADME, organism-based; conditions: in vivo, 2 h
[44] = Biodistribution in Wistar rat fat at 300 uCi, iv after 20 mins; type: ADME, organism-based, Adipose tissue; conditions: in vivo
Plasma [45] = test: Metabolic stability in Wistar rat plasma assessed as polar metabolite level at 1 mCi, iv after 60 mins; type: ADME, organism-based; conditions: in vivo, 1 h
[46] = Biodistribution in Wistar rat hair and skin at 300 uCi, iv after 120 mins; type: ADME, organism-based; conditions: in vivo, 2 h
Cerebellum [47] = test: Biodistribution in Wistar rat cerebellum at 300 uCi, iv after 20 mins; type: ADME, organism-based; conditions: in vivo
Cortex [48] = test: Biodistribution in Wistar rat cortex at 300 uCi, iv after 60 mins in presence of GBR-12909; type: ADME, organism-based; conditions: in vivo, 1 h
Kidney = test: Biodistribution in Wistar rat kidney at 300 uCi, iv after 20 mins; type: ADME, organism-based; conditions: in vivo
Harderian gland [49] = test: Biodistribution in Wistar rat harderian glands at 300 uCi, iv after 20 mins; type: ADME, organism-based; conditions: in vivo
Pancreas [50] = test: Biodistribution in Wistar rat pancreas at 300 uCi, iv after 240 mins; type: ADME, organism-based; conditions: in vivo, 4 h
Heart [51] = test: Biodistribution in Wistar rat heart at 300 uCi, iv after 60 mins; type: ADME, organism-based; conditions: in vivo, 1 h
[52] = Biodistribution in Wistar rat hair and skin at 300 uCi, iv after 5 mins; type: ADME, organism-based; conditions: in vivo
Striatum [53] = test: Biodistribution in Wistar rat striatum at 300 uCi, iv after 240 mins; type: ADME, organism-based; conditions: in vivo, 4 h
Muscle tissue [54] = test: Biodistribution in Wistar rat muscle at 300 uCi, iv after 5 mins; type: ADME, organism-based; conditions: in vivo
Lung [55] = test: Biodistribution in Wistar rat lung at 300 uCi, iv after 5 mins; type: ADME, organism-based; conditions: in vivo
Cerebellum [56] = test: Biodistribution in Wistar rat cerebellum at 300 uCi, iv after 120 mins; type: ADME, organism-based; conditions: in vivo, 2 h

Q: Which Drug uptake (Cortex [1]) does the source give for `CN1C2CCC1C(C(=O)OCC[18F])C(c1ccc(Br)cc1)C2` (stereo not given) here?
A: 0.14 % ID/g

Q: What about the Drug uptake (Striatum [2]) of the same molecule?
A: 3.23 % ID/g

Q: What about the Drug uptake (Blood [3]) of the same molecule?
A: 0.16 % ID/g

Q: And the Drug uptake (Cerebellum [4])?
A: 0.62 % ID/g

Q: What about the Drug uptake (Harderian gland [5]) of the same molecule?
A: 0.93 % ID/g

Q: And the Drug uptake (Brain [6])?
A: 1.07 % ID/g

Q: And the Drug uptake (Muscle tissue [7])?
A: 0.09 % ID/g

Q: And the Drug uptake (Hippocampus [8])?
A: 1.06 % ID/g

Q: What about the Drug uptake (Blood [9]) of the same molecule?
A: 0.03 % ID/g

Q: And the Drug uptake (Spleen)?
A: 0.58 % ID/g

Q: What about the Drug uptake [10] of the same molecule?
A: 0.27 % ID/g

Q: And the Drug uptake (Harderian gland [11])?
A: 1.46 % ID/g

Q: What about the Drug uptake (Blood [12]) of the same molecule?
A: 0.025 % ID/g

Q: And the Drug uptake (Brain [13])?
A: 1.23 % ID/g

Q: What about the Drug uptake (Heart [14]) of the same molecule?
A: 0.48 % ID/g

Q: What about the Drug uptake [15] of the same molecule?
A: 0.59 % ID/g

Q: And the Drug uptake (Cortex [16])?
A: 3.19 % ID/g

Q: What about the Drug uptake (Harderian gland [17]) of the same molecule?
A: 2.37 % ID/g

Q: What about the Drug uptake (Hippocampus [18]) of the same molecule?
A: 2.37 % ID/g

Q: What about the Drug uptake (Cortex [19]) of the same molecule?
A: 0.97 % ID/g

Q: And the Drug uptake (Striatum [20])?
A: 1.51 % ID/g

Q: And the Stability (Plasma [21])?
A: > 98%

Q: And the Stability (Plasma [22])?
A: 42%

Q: What about the Drug uptake (Heart [23]) of the same molecule?
A: 1.09 % ID/g

Q: What about the Drug uptake (Muscle tissue [24]) of the same molecule?
A: 0.33 % ID/g

Q: What about the Stability (Plasma [25]) of the same molecule?
A: 61%

Q: What about the Drug uptake (Pancreas [26]) of the same molecule?
A: 2.09 % ID/g

Q: What about the Drug uptake (Lung [27]) of the same molecule?
A: 0.54 % ID/g

Q: What about the Drug uptake (Testes [28]) of the same molecule?
A: 0.39 % ID/g

Q: What about the Drug uptake [29] of the same molecule?
A: 0.21 % ID/g

Q: What about the Drug uptake (Femur [30]) of the same molecule?
A: 0.1 % ID/g

Q: What about the Drug uptake (Femur [31]) of the same molecule?
A: 0.17 % ID/g

Q: And the Drug uptake [32]?
A: 0.29 % ID/g

Q: And the Drug uptake (Pancreas [33])?
A: 1.23 % ID/g

Q: And the Drug uptake (Pancreas [34])?
A: 0.29 % ID/g

Q: And the Drug uptake (Thymus)?
A: 0.08 % ID/g

Q: And the Drug uptake (Cerebellum [35])?
A: 0.71 % ID/g

Q: And the Drug uptake (Cortex [36])?
A: 0.45 % ID/g

Q: What about the Stability (Plasma [37]) of the same molecule?
A: 21%

Q: What about the Drug uptake (Testes [38]) of the same molecule?
A: 0.33 % ID/g

Q: And the Drug uptake (Striatum [39])?
A: 3.93 % ID/g

Q: And the Drug uptake (Cerebellum [40])?
A: 1.77 % ID/g

Q: And the Drug uptake [41]?
A: 0.39 % ID/g

Q: What about the Drug uptake (Adrenal) of the same molecule?
A: 0.58 % ID/g

Q: What about the Drug uptake (Liver [42]) of the same molecule?
A: 3.2 % ID/g

Q: What about the Drug uptake (Liver [43]) of the same molecule?
A: 15.7 % ID/g

Q: What about the Drug uptake [44] of the same molecule?
A: 0.48 % ID/g

Q: What about the Stability (Plasma [45]) of the same molecule?
A: 85%

Q: What about the Drug uptake [46] of the same molecule?
A: 0.17 % ID/g

Q: What about the Drug uptake (Cerebellum [47]) of the same molecule?
A: 1.37 % ID/g

Q: And the Drug uptake (Cortex [48])?
A: 0.94 % ID/g

Q: What about the Drug uptake (Kidney) of the same molecule?
A: 3.51 % ID/g

Q: What about the Drug uptake (Harderian gland [49]) of the same molecule?
A: 2.04 % ID/g

Q: What about the Drug uptake (Pancreas [50]) of the same molecule?
A: 0.13 % ID/g

Q: And the Drug uptake (Heart [51])?
A: 0.21 % ID/g

Q: And the Drug uptake [52]?
A: 0.47 % ID/g

Q: And the Drug uptake (Striatum [53])?
A: 2.45 % ID/g

Q: What about the Drug uptake (Muscle tissue [54]) of the same molecule?
A: 0.42 % ID/g

Q: What about the Drug uptake (Lung [55]) of the same molecule?
A: 6.53 % ID/g

Q: And the Drug uptake (Cerebellum [56])?
A: 0.24 % ID/g

Source: ChEMBL document CHEMBL1148029, “Synthesis and radiopharmacological characterization of 2beta-carbo-2'-[18F]fluoroethoxy-3beta-(4-bromo-phenyl)tropane ([18F]MCL-322) as a PET radiotracer for imaging the dopamine transporter (DAT)” (Bioorg Med Chem, 2007)
